According to patent US20170349533A1 (F.I.S.- FABBRICA ITALIANA SINTETICI S.P.A, priority 2014, published 2017):
Where “and” joins values, the source holds several entries; their conditions need not be identical. Equal values may be shown once. Entries after “also recorded” stand apart in the source; their conditions may differ.

Key:
[1] = Kinetic solubility study at pH 4.5 (acetic acid/sodium acetate buffer, HPLC area); details: for Encl. Citr. average / solubility at pH 4.5 compared with Enclomiphene citrate having non-needle crystals: pH 4.5
Protocol: (§1) Solubility was determined by HPLC analysis, by comparison of the area corresponding to Enclomiphene HPLC peak.
(§2) To carry out the solubility studies, 400 mg of each product (not grinded) was stirred in water (24 ml, 60v) under the same conditions of stirring speed (magnetic stirring at 1000 rpm with a 2 cm “rugby shape” stir bar), flask used (round bottom flask of 50 ml of capacity with a 29/32 neck), etc. Alliquotes of ca 6 ml of suspension were filtered at different times: 15, 45, 90 and 180 min. After filtration, mother liquors were directly analyzed by HPLC (doing 2 replicates for each analysis) and its pH was determined. The filtered solid was analyzed by XRPD. The solubility analysis was repeated for each product and comparison of solubility was determined by the differences of HPLC area.
Solubility at a slightly acid medium was determined at pH 4.5 buffer used was a mixture acetic acid/sodium acetate prepared according to USP specifications.

[2] = Hygroscopicity by DVS (Dynamic Vapour Sorption); assay type: physicochemical; details: 25° C.; for water uptake at 95% RH: 0-95% RH
Protocol: This is a gravimetric technique that measures how much water is absorbed or desorbed by a sample at different relative humidity (RH). At each RH, the sample mass must be allowed to reach gravimetric equilibrium (or surpassed time limit) before progressing to the next humidity level. Sorption and desorption isotherms will be performed at 25° C. over a range of 0-95% RH. The type of sorption isotherm is determined by the pore size and surface character of the material.

[3] = Particle size distribution by laser diffraction, wet dispersion; assay type: physicochemical
Description: Different techniques can be used in order to determine the population size distribution (Microscopy image analysis, sieving, sedimentation . . . ). However laser diffraction particle size analyzer using light scattering is one of the most widely used. It is worth noting that each technique is liable to generate a different mean diameter as well as measuring different properties of the particle. Therefore it is very important to indicate the used technique when a result of mean size is given.
Particle size analysis by laser diffraction analyzer can be performed in wet or dry dispersion. However wet dispersion was selected because: • it allows to use only a small amount of sample, • it is recommended for fragile particles such as organic crystals.
Particle size distribution was analyzed in a Beckman Coulter LS13320 apparatus equipped with an Universal Liquid Module.
The particles have to be insoluble in the liquid used for the wet dispersion to avoid dissolution during the measurement.
40 mg of the sample were stirred in 25 ml of water and 3 drops of Triton X100 (to improve the wettability of the crystals and to avoid agglomeration during the analysis). If necessary, ultrasonic irradiation (bath 30 kHz and 200 W) was used for short time in order to break up any agglomerates or aggregates.

[4] = Stability study of crystal habit by microscopy, three stability conditions for 30 days; assay type: physicochemical; details: 30 days at 60% RH, 75% RH-40° C., 95% RH
Description: (B), and 95% RH (C), with reflected light (left) and transmitted light (right) (scale 500 μm).
Microscopy analysis of Enclomiphene base having prismatic shaped crystal habit exposed to three stability conditions for 30 days indicated the same colorless transparent prism as the starting product.

[5] = Flowability through a glass funnel (in-house method); assay type: physicochemical
Protocol: Flowability was determined by an in-house method using a glass funnel (diameter 80 mm-stem diameter 10 mm-stem length 75 mm) with approximately 5 g of product repeating the process three times (in the cases in which flowability was observed). Different parameters were observed: • Flow or not • Need of percussion • Time to pass through the funnel

[6] = Filterability of suspension in ethanol; assay type: physicochemical; details: 40 mL of suspension in ethanol, on paper over a Buckner
Protocol: Enclomiphene having prismatic shaped crystal habit is indeed very well filterable, since, for example, the filtration (on paper over a Buckner) of 40 mL of suspensions containing of said solid in ethanol takes only 10 seconds.

[7] = Bulk and tapped density (in-house method, filled space of 500 mg in a test tube); assay type: physicochemical
Protocol: Density was determined by an in-house method measuring the filled space by a sample of 500 mg in a test tube before and after hitting the tube (bulk and tapped density, respectively):
The compressibility index calculated from bulk and tapped densities can be used to estimate the flow characteristics of the powder. Following the rule described in the article Chem Eng 1965; 72:163-168, it can be considered that the flow character should be: • Excellent for Enclomiphene base having prismatic shaped crystal habit, • Passable for Enclomiphene base having non-prismatic shaped crystal habit (of example 19).

[8] = Kinetic solubility study in water (HPLC area of Enclomiphene peak)
Protocol: as §1
For each solubility study, the following parameters were monitored: • intensity of Enclomiphene peak for each replicate of the assay • average value • standard deviation.
as §2
Below an HPLC method that allow to have a fast determination of Enclomiphene solubility:
These HPLC conditions were used to perform solubility analysis.

[9] = water + Triton X100, without sonication, listed as Enclomiphene having prismatic shaped crystal habit
[10] = water + Triton X100, without sonication, listed as Sample 724
[11] = water + Triton X100, without sonication, listed as batch 724
[12] = first run (example 19: with constant percussion)
[13] = first run, approx. 5 g, glass funnel
[14] = water + Triton X100, without sonication, listed as Sample 725
[15] = water + Triton X100, without sonication, listed as batch 725

CCN(CC)CCOc1ccc(/C(=C(/Cl)c2ccccc2)c2ccccc2)cc1 [Enclomiphene acetate]
Encl. Citr. average ([1]; 0 min): 0 HPLC area | Encl. Citr. average ([1]; 15 min): 14069 HPLC area | Encl. Citr. average ([1]; 45 min): 13771 HPLC area | Encl. Citr. average ([1]; 90 min): 13708 HPLC area | Encl. Citr. average ([1]; 180 min): 13196 HPLC area

CCN(CC)CCOc1ccc(/C(=C(/Cl)c2ccccc2)c2ccccc2)cc1 [Enclomiphene base (example 18), Enclomiphene]
hygroscopicity (in words) ([2]; whole range 0-95% RH): not hygroscopic | PSD D10 [3, 9]: 80 μm | PSD D90 [3, 9]: 770 μm | PSD D10 [3, 10]: 81.89 μm | PSD D90 [3, 10]: 770 μm | PSD Mean [3, 10]: 374.3 μm | PSD Median (D50) [3, 10]: 306.4 μm | PSD Mode [3, 10]: 356.1 μm | PSD Mean [3, 11]: 374.3 μm | PSD Median (D50) [3, 11]: 306.54 μm | stability of crystal habit [4]: remains stable at least one month | Percussion needed? ([5]; first run): Yes | time to pass through the funnel [5, 12]: 15 s | Flow? [5, 13]: Yes | flow through the funnel ([5]; listed as Enclomiphene having prismatic shaped crystal habit): flowed through the funnel | Flow? ([5]; second run): Yes | Percussion needed? ([5]; second run): Yes | time to pass through the funnel ([5]; second run): 12 s | Flow? ([5]; third run): Yes | Percussion needed? ([5]; third run): yes | time to pass through the funnel ([5]; third run): 14 s | time to pass through the funnel ([5]; with percussion, listed as Enclomiphene having prismatic shaped crystal habit): 10 s | filtration time [6]: 10 s | filled space of 500 mg in test tube ([7]; filled space of 500 mg in a test tube after hitting the tube, listed as Enclomiphene (example 18)): 8 mm | filled space of 500 mg in test tube ([7]; filled space of 500 mg in a test tube after hitting the tube, listed as Enclomiphene base having prismatic crystal habit): 8 mm | filled space of 500 mg in test tube ([7]; filled space of 500 mg in a test tube before hitting the tube, listed as Enclomiphene (example 18)): 8 mm | filled space of 500 mg in test tube ([7]; filled space of 500 mg in a test tube before hitting the tube, listed as Enclomiphene base having prismatic crystal habit): 8 mm | Reduced space (bulk vs tapped) ([7]; listed as Enclomiphene (example 18)): 0%

CCN(CC)CCOc1ccc(/C(=C(/Cl)c2ccccc2)c2ccccc2)cc1 [Enclomiphene base (example 19), Enclomiphene]
PSD D10 ([3]; 10 sec sonication): 0.100 μm | PSD D90 ([3]; 10 sec sonication): 1.942 μm | PSD Mean ([3]; 10 sec sonication): 0.715 μm | PSD Median (D50) ([3]; 10 sec sonication): 0.284 μm | PSD Mode ([3]; 10 sec sonication): 1.748 μm | PSD D10 [3, 14]: 5.819 μm | PSD D90 [3, 14]: 90.47 μm | PSD Mean [3, 14]: 36.79 μm | PSD Median (D50) [3, 14]: 24.96 μm | PSD Mode [3, 14]: 26.14 μm | PSD Mean [3, 15]: 36.79 μm | PSD Median (D50) [3, 15]: 24.96 μm | Percussion needed? ([5]; first run): Yes (if constant) | time to pass through the funnel [5, 12]: 130 s | Flow? [5, 13]: No (static | flow through the funnel ([5]; listed as Enclomiphene having non-prismatic shaped crystal habit): did not flow | time to pass through the funnel ([5]; with percussion, listed as Enclomiphene having non-prismatic shaped crystal habit): 130 s | filled space of 500 mg in test tube ([7]; filled space of 500 mg in a test tube after hitting the tube, listed as Enclomiphene (example 19)): 13 mm | filled space of 500 mg in test tube ([7]; filled space of 500 mg in a test tube after hitting the tube, listed as Enclomiphene base having non-prismatic crystal habit): 13 mm | filled space of 500 mg in test tube ([7]; filled space of 500 mg in a test tube before hitting the tube, listed as Enclomiphene (example 19)): 17 mm | filled space of 500 mg in test tube ([7]; filled space of 500 mg in a test tube before hitting the tube, listed as Enclomiphene having non-prismatic crystal habit): 24 mm | Reduced space (bulk vs tapped) ([7]; listed as Enclomiphene (example 19)): 24%

CCN(CC)CCOc1ccc(/C(=C(/Cl)c2ccccc2)c2ccccc2)cc1 [Enclomiphene base, Enclomiphene]
solubility in water (in words) [8]: highly insoluble

CCN(CC)CCOc1ccc(/C(=C(/Cl)c2ccccc2)c2ccccc2)cc1.O=C(O)CC(O)(CC(=O)O)C(=O)O [Enclomiphene citrate having needle crystals]
solubility at pH 4.5 compared with Enclomiphene citrate having non-needle crystals [1]: 4 to 5 times | solubility at pH 4.5 compared with Enclomiphene citrate having non-needle crystals ([1]; listed as Enclomiphene citrate having needle shaped crystal habit): four times higher | Average a/a ([1]; pH = 4.5, 0 min): 0 a/a | Average a/a ([1]; pH = 4.5, 15 min): 4135 a/a | Average a/a ([1]; pH = 4.5, 45 min): 4024 a/a | Average a/a ([1]; pH = 4.5, 90 min): 5109 a/a | Average a/a ([1]; pH = 4.5, 180 min): 5079 a/a | water uptake at 95% RH ([2]; listed as batch 723): 2.33 % weight and 2.3 % weight | solubility in water compared with Enclomiphene citrate having non-needle shaped crystal habit ([8]; water, listed as Enclomiphene citrate having needle shaped crystal habit): almost double; also recorded: almost two times

CCN(CC)CCOc1ccc(/C(=C(/Cl)c2ccccc2)c2ccccc2)cc1.O=C(O)CC(O)(CC(=O)O)C(=O)O [Enclomiphene citrate having non-needle crystals] [trans-Clomiphene monocitrate]
Average a/a ([1]; pH = 4.5, 0 min): 0 a/a | Average a/a ([1]; pH = 4.5, 15 min): 1185 a/a | Average a/a ([1]; pH = 4.5, 45 min): 924 a/a | Average a/a ([1]; pH = 4.5, 90 min): 1095 a/a | Average a/a ([1]; pH = 4.5, 180 min): 1052 a/a | moisture sorption between 0% and 65% RH ([2]; 0-65% RH): 2 % weight | water uptake at 95% RH ([2]; listed as batch 722): 6 % weight
